According to ChEMBL document CHEMBL5727227, “N-((het) arylmethyl)-heteroaryl-carboxamides compounds as plasma kallikrein inhibitors” (2019):

Biological target: Plasma kallikrein (Homo sapiens, UniProt P03952)
Test: Inhibitory Activity In Vitro Assay : Plasma kallikrein inhibitory activity in vitro was determined using standard published methods. Human plasma kallikrein (Protogen) was incubated at 25° C. with the fluorogenic substrate H-DPro-Phe-Arg-AFC and various concentrations of the test compound. Residual enzyme activity (initial rate of reaction) was determined by measuring the change in […] and the IC50 value for the test compound was determined.

Sequence of Plasma kallikrein (P03952 20-390 limits assumed): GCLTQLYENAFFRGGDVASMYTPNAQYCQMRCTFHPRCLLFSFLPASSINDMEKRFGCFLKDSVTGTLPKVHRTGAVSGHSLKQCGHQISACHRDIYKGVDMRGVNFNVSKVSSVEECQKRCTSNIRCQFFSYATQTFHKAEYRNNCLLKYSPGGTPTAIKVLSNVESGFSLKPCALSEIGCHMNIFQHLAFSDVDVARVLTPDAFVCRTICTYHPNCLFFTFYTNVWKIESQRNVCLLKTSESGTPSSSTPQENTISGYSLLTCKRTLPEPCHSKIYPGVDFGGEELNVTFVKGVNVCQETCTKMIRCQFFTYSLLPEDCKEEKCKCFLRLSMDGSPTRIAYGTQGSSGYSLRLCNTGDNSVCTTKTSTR
Sequence of Plasma kallikrein (P03952 391-638 limits assumed): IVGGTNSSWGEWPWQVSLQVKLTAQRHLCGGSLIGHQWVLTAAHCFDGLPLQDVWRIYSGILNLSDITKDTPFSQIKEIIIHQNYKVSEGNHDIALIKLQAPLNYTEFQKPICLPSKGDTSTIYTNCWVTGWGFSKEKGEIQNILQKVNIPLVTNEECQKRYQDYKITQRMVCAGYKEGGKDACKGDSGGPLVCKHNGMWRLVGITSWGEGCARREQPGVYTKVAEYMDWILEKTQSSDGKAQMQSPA

- IC50: 2360 nM
SMILES: CCOc1cccc(CNC(=O)c2cn(Cc3ccc(Cn4cc(C)cn4)cc3)nc2C(F)(F)F)c1
